Test results from patent publication US5334595A, “Pyrazoloquinolones as anticancer agents” (priority 1992, dated 1994).
Where two headings read alike, the source gives them in different places.

What was measured:
human topoisomerase II = biological target: T1, human topoisomerase II (Homo sapiens, UniProt P11388); experiment: Mammalian topoisomerase II inhibition assay (topo II covalently attached to DNA, relative to mAMSA); format: biochemical; conditions: read-out: topo II inh. EC50
T1 construct: Topo II was purified from late log phase suspension cultures of HeLa WIS; endogenous in cells; host or cells: HeLa WIS
T1 sequence (P11388 whole entry): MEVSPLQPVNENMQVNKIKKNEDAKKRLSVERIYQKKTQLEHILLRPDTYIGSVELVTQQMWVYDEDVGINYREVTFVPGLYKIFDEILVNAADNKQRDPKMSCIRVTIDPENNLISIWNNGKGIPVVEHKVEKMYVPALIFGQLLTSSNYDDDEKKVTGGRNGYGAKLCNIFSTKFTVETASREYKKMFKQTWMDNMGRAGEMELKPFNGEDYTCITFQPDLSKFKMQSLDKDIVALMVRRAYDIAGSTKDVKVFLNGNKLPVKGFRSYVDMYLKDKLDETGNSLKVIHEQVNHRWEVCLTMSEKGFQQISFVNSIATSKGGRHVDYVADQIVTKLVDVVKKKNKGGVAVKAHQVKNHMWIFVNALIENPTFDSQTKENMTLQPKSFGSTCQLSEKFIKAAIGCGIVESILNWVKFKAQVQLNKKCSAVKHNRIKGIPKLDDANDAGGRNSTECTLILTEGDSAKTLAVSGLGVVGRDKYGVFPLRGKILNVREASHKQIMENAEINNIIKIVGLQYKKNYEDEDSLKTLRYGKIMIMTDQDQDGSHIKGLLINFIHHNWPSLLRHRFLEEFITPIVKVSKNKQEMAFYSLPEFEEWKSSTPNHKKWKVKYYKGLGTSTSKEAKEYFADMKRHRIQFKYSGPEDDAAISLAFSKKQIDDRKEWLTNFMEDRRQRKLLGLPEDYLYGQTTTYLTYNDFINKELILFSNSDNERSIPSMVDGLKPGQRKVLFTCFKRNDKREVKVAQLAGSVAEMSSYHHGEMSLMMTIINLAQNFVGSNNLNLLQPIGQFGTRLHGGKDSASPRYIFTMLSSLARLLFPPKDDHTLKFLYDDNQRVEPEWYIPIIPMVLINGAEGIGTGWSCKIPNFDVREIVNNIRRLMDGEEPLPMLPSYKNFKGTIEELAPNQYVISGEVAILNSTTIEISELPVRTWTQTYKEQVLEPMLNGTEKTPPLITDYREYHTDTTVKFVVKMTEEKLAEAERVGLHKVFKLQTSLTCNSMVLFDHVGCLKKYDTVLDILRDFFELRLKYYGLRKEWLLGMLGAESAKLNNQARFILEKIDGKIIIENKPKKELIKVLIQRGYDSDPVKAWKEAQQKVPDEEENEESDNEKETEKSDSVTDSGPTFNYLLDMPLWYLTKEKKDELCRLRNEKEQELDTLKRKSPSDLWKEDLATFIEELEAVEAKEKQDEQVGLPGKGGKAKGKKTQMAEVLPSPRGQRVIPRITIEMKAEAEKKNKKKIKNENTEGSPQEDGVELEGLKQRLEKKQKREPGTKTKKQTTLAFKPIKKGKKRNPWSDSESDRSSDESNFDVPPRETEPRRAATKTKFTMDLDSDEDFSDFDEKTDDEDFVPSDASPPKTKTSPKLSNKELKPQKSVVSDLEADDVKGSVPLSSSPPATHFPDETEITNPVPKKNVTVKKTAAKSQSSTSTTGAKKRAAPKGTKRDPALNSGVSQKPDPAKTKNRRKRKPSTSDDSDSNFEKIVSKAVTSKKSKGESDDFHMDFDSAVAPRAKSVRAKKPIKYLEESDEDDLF
Text: The inhibition of human topoisomerase II (hereafter topo II) was quantitated by a procedure adapted from that described by Trask et al., EMBO J., 3, 671-676 (1984). The assay quantitates the amount of topo II covalently attached to DNA at equilibrium during a topo II reaction. This assay determines the potential of a compound to stabilize this complex, which potential is closely related to the cytotoxicity of the compound.
Topo II was purified from late log phase suspension cultures of HeLa WIS by an adaptation of the method described by Per et al., Mol. Pharmacol., 32, 17-25 (1987).
Assays (in duplicate) were assembled at 4° C. Assay mix (25 μl) was distributed in Beckman (No. 265270) 1.5 mL microtiter tubes followed by the addition of 5 μl test compound to yield the final concentrations of assay components:
The assay mix including the test compound was incubated for 20 minutes at 37° C. The reaction was terminated at 37° C. by the addition of 3 μl 10% SDS followed by the addition of 266 μl 10 mM Tris-Cl pH 7.5, 20 μg/ml BSA, 20 μg/ml calf thymus DNA, 1% SDS.
A SDS/protein precipitate was formed by the addition of 28 μl 2.5M KCl followed by chilling on ice for a minimum of 10 minutes. The precipitate was collected and washed with a Brandell cell harvester on a GFB glass fiber filter membrane as follows. The contents of the assay tube were drawn up into the harvester. The tube was then rinsed 7× with 10 mM Tris-Cl pH 7.5, 1 mM EDTA and 100 mM KCl. The precipitate was washed with 1 L of a solution of 10 mM Tris-Cl pH 7.5, 1 mMEDTA, 100 mM KCl followed by 1 L of 95% ethyl alcohol and finally 0.5 L 70% of ethyl alcohol (per 48 samples in each case). After drying, CPM was determined by liquid scintillation counting with 5 ml Biofluor (NEN Research Products) or Readisafe (Beckman Instruments Inc.) cocktail.
Preparation of test compound--A stock solution (6 mg/ml) of test compound was prepared either in 0.1N sodium hydroxide or 0.2N hydrogen chloride. This solution then was diluted 1/5 into water and serially thereafter in either 0.02N sodium hydroxide or 0.04N hydrogen chloride, respectively. The stock solution and serial dilution of the test compound was stored at -20° C. prior to testing.
Screening of test compound--As an initial screen, the test compound was tested at a final concentration of 2, 20 and 200 μg/ml. The compound was then retested at a range of concentrations (usually 2-3×steps) bridging their approximate EC50 's, as estimated by the prescreen.
Controls--A solvent control which indicates the base level of topo II-DNA complex formed in the absence of the test compound was included in each test. A control, in which topo II was omitted, was included for each test compound at the highest drug concentration tested.
Reference Agent--A dose response curve with mAMSA at 0.01, 0.08, 0.16, 0.32, 1.0 and 10 μg/ml was included in each test.
The maximal DNA-topo II complex formed is taken as that equal to that formed at the nearly saturating dose of mAMSA (10 μg/ml).

[1] = tested on: P388 murine leukemia cells; experiment: In vitro cytotoxicity, continuous (48-hour) exposure of P388 cells; format: cell-based; conditions: Mus musculus; P388, continuous exposure (48-hour); read-out: in vitro cytotoxicity IC50, cont. exp.
Method: (§1) In vitro cytotoxicity was assayed by determining cell survival following exposure of P388 murine leukemia cells to a range of test compound concentrations. Cytotoxicity was quantitated following either a one-hour exposure or continuous exposure of P388 cells to test compound.
(§2) A Manual of Basic Technique. […] Briefly, following drug exposure cells were plated in soft agar and incubated (37°, 5% CO2) for 7-10 days during which time viable cells form visible colonies. Cytotoxicity following continuous exposure of cells to test compound was assayed by quantitating total P388 cells on a Coultier Counter following a 48-hour co-incubation of test compound with cells. P388 cells were maintained in log phase throughout the duration of cytotoxicity assays.
(§3) The percentage of cells surviving relative to an untreated control was graphed as a function of increasing drug concentration.

[2] = tested on: P388 murine leukemia cells; experiment: In vitro cytotoxicity, one-hour exposure, clonogenic survival of P388 cells; format: cell-based; conditions: Mus musculus, read-out: in vitro cytotoxicity IC50, 1 hr exp.; P388, 1 hr exposure
Method: as §1, §2, §3

[3] = conc. achieving 50% of maximal effect of mAMSA, topo II from HeLa cells
[4] = footnote c: bell-shaped dose response curve noted, 50% of maximal effect of mAMSA

With Cc1cc(-c2c(F)cc3c4nn(CCC#N)c(=O)c-4cn(C4CC4)c3c2F)cc(C)n1 [Example 13] the EC50 (human topoisomerase II; [3]) was 6.7 µM and the IC50 [1] was 1.4 µM.
CO[C@@H]1CCCC[C@@H]1n1nc2c3cc(F)c(-c4cc(C)nc(C)c4)c(F)c3n(C3CC3)cc-2c1=O (relative stereo) [Example 45] showed an EC50 (human topoisomerase II; [3]) of 6.3 µM and an IC50 [2] of 0.57 µM.
With Cc1cc(-c2c(F)cc3c4nn(C(C)C)c(=O)c-4cn(C4CC4)c3c2F)cc(C)n1 [Example 3, 5-Cyclopropyl-6,8-difluoro-7-(2,6-dimethyl-4-pyridinyl)-2,5-dihydro-2-(2-propyl) -3H-pyrazolo[4,3-c]quinolin-3-one] the EC50 (human topoisomerase II; [3]) was 5 µM and the IC50 [1] was 0.53 µM.
Compound Cc1cc(-c2c(F)cc3c4nn(-c5ccccn5)c(=O)c-4cn(C4CC4)c3c2F)cc(C)n1 [Example 29] has an EC50 (human topoisomerase II; [3]) of 2.8 µM and an IC50 [1] of 0.74 µM.
Cc1cc(-c2c(F)cc3c4nn(-c5c(F)c(F)c(F)c(F)c5F)c(=O)c-4cn(C4CC4)c3c2F)cc(C)n1 [Example 25] gave an EC50 (human topoisomerase II; [3]) of 3.4 µM and an IC50 [1] of 2.2 µM.
For COc1cc(Cn2nc3c4cc(F)c(-c5cc(C)nc(C)c5)c(F)c4n(C4CC4)cc-3c2=O)cc(OC)c1OC [Example 36], the EC50 (human topoisomerase II; [3]) was 6.4 µM and the IC50 [1] was 1.2 µM.
Compound Cc1cc(-c2c(F)cc3c4nn(CC(=O)O)c(=O)c-4cn(C4CC4)c3c2F)cc(C)n1 [Example 53, 2-[5-Cyclopropyl-6,8-difluoro-2,5-dihydro-7-(2,6-dimethyl-4-pyridinyl)-3-oxo-3H-pyrazolo[4,3-c]quinolinyl]acetic acid] has an EC50 (human topoisomerase II; [3]) of 10 µM and an IC50 [1] of 18 µM.
COc1ccccc1Cn1nc2c3cc(F)c(-c4cc(C)nc(C)c4)c(F)c3n(C3CC3)cc-2c1=O [Example 32] showed an EC50 (human topoisomerase II; [3]) of 5.1 µM and an IC50 [1] of 1.2 µM.
With Cc1cc(-c2c(F)cc3c4nn(-c5ccc(O)cc5)c(=O)c-4cn(C4CC4)c3c2F)cc(C)n1 [Example 27] the EC50 (human topoisomerase II; [3]) was 4.9 µM and the IC50 [1] was 2.6 µM.
With COc1ccc(Cn2nc3c4cc(F)c(-c5cc(C)nc(C)c5)c(F)c4n(C4CC4)cc-3c2=O)cc1 [Example 34] the EC50 (human topoisomerase II; [3]) was 3.2 µM and the IC50 [1] was 0.44 µM.
In the case of Cc1cc(-c2c(F)cc3c4nn(C)c(=O)c-4cn(C4CC4)c3c2F)cc(C)n1 [Example 7], the EC50 (human topoisomerase II; [3]) is reported as 5.9 µM and the IC50 [1] is reported as 0.51 µM.
Cc1cc(-c2c(F)cc3c4nn(CCCCO)c(=O)c-4cn(C4CC4)c3c2F)cc(C)n1 [Example 11] showed an EC50 (human topoisomerase II; [3]) of 4.2 µM and an IC50 [1] of 0.88 µM.
Cc1cc(-c2c(F)cc3c4nn(-c5cccc6ccccc56)c(=O)c-4cn(C4CC4)c3c2F)cc(C)n1 [Example 28] showed an EC50 (human topoisomerase II; [3]) of 2.9 µM and an IC50 [1] of 0.32 µM.
With Cc1cc(-c2c(F)cc3c4nn([C@H]5CC[C@H](NC=O)CC5)c(=O)c-4cn(C4CC4)c3c2F)cc(C)n1 [Example 58, 2-(trans-4-formamidocyclohexyl)-5-cyclopropyl-6,8-difluoro-2,5-dihydro-7-(2,6-dimethyl-4-pyridinyl)-3H-pyrazolo[4,3-c]quinolin-3-one] the EC50 (human topoisomerase II; [3]) was 1.5 µM and the IC50 [2] was 9.1 µM.
In the case of Cc1ccc(-n2nc3c4cc(F)c(-c5cc(C)nc(C)c5)c(F)c4n(C4CC4)cc-3c2=O)cc1 [Example 24], the EC50 (human topoisomerase II; [3]) is reported as 8.9 µM and the IC50 [1] is reported as 4.9 µM.
Work on Cc1cc(-c2c(F)cc3c4nn(CCc5ccccc5O)c(=O)c-4cn(C4CC4)c3c2F)cc(C)n1 [Example 39] yielded an EC50 (human topoisomerase II; [4]) of 9.6 µM.
Work on Cc1cc(-c2c(F)cc3c4nn(CCO)c(=O)c-4cn(C4CC4)c3c2F)cc(C)n1 [Example 10] yielded an EC50 (human topoisomerase II; [3]) of 6.4 µM and an IC50 [1] of 1.4 µM.
In the case of Cc1cc(-c2c(F)cc3c4nn(Cc5ccc(O)cc5)c(=O)c-4cn(C4CC4)c3c2F)cc(C)n1 [Example 35], the EC50 (human topoisomerase II; [3]) is reported as 1.5 µM and the IC50 [1] is reported as 0.25 µM.
Compound Cc1cc(-c2c(F)cc3c4nn(C5CCC(C)CC5)c(=O)c-4cn(C4CC4)c3c2F)cc(C)n1 (centres unmarked) [Example 47] has an EC50 (human topoisomerase II; [3]) of 3.1 µM and an IC50 [2] of 1.4 µM.
For Cc1cc(-c2c(F)cc3c4nn(CCN5CCCCC5)c(=O)c-4cn(C4CC4)c3c2F)cc(C)n1 [Example 19], the EC50 (human topoisomerase II) was 210 µM and the IC50 [2] was 0.44 µM.
Work on Cc1cc(-c2c(F)cc3c4nn(-c5ccncc5)c(=O)c-4cn(C4CC4)c3c2F)cc(C)n1 [Example 30] yielded an EC50 (human topoisomerase II; [4]) of 8 µM and an IC50 [1] of 1.2 µM.
CC(=O)N[C@H]1CC[C@@H](n2nc3c4cc(F)c(-c5cc(C)nc(C)c5)c(F)c4n(C4CC4)cc-3c2=O)CC1 [Example 52a] gave an EC50 (human topoisomerase II; [3]) of 7.4 µM and an IC50 [2] of 1.3 µM.
CCCCn1nc2c3cc(F)c(-c4cc(C)nc(C)c4)c(F)c3n(C3CC3)cc-2c1=O [Example 4, 2-(1-Butyl)-5-cyclopropyl-6,8-difluoro-2,5-dihydro-7-(2,6-dimethyl-4-pyridinyl) -3H-pyrazolo[4,3-c]quinolin-3-one] gave an EC50 (human topoisomerase II; [3]) of 2.9 µM and an IC50 [1] of 1.5 µM.
For Cc1cc(-c2c(F)cc3c4nn(Cc5ccccc5)c(=O)c-4cn(C4CC4)c3c2F)cc(C)n1 [Example 31], the EC50 (human topoisomerase II; [3]) was 3.7 µM and the IC50 [1] was 0.14 µM.
Cc1cc(-c2c(F)cc3c4nn(C5CCC(c6ccccc6)CC5)c(=O)c-4cn(C4CC4)c3c2F)cc(C)n1 (centres unmarked) [Example 48] was tested, and the EC50 (human topoisomerase II; [3]) was 4.5 µM and the IC50 [2] was 8.4 µM.
In the case of COC(Cn1nc2c3cc(F)c(-c4cc(C)nc(C)c4)c(F)c3n(C3CC3)cc-2c1=O)OC [Example 12], the EC50 (human topoisomerase II; [3]) is reported as 23 µM.
With CCN(CC)CCn1nc2c3cc(F)c(-c4cc(C)nc(C)c4)c(F)c3n(C3CC3)cc-2c1=O [Example 15] the EC50 (human topoisomerase II) was 93 µM and the IC50 [2] was 0.45 µM.
Cc1cc(-c2c(F)cc3c4nn(C(C)(C)C)c(=O)c-4cn(C4CC4)c3c2F)cc(C)n1 [Example 8] was tested, and the EC50 (human topoisomerase II; [3]) was 6.9 µM and the IC50 [1] was 3.5 µM.
COc1ccccc1CCn1nc2c3cc(F)c(-c4cc(C)nc(C)c4)c(F)c3n(C3CC3)cc-2c1=O [Example 38] was tested, and the EC50 (human topoisomerase II; [3]) was 11 µM.
With CC(=O)N[C@H]1CC[C@H](n2nc3c4cc(F)c(-c5cc(C)nc(C)c5)c(F)c4n(C4CC4)cc-3c2=O)CC1 [Example 52b] the EC50 (human topoisomerase II; [3]) was 9.8 µM and the IC50 [2] was 1.2 µM.
COc1ccccc1-n1nc2c3cc(F)c(-c4cc(C)nc(C)c4)c(F)c3n(C3CC3)cc-2c1=O [Example 26] gave an EC50 (human topoisomerase II; [3]) of 5 µM and an IC50 [1] of 0.34 µM.
With CCOC(=O)Cn1nc2c3cc(F)c(-c4cc(C)nc(C)c4)c(F)c3n(C3CC3)cc-2c1=O [Example 9] the EC50 (human topoisomerase II; [3]) was 6.1 µM and the IC50 [1] was 0.15 µM.
For Cc1cc(-c2c(F)cc3c4nn(CCc5ccccc5)c(=O)c-4cn(C4CC4)c3c2F)cc(C)n1 [Example 37], the EC50 (human topoisomerase II; [3]) was 5 µM and the IC50 [1] was 2.2 µM.
With Cc1cc(-c2c(F)cc3c4nn(C5CCc6ccccc6C5)c(=O)c-4cn(C4CC4)c3c2F)cc(C)n1 (centres unmarked) [Example 44] the EC50 (human topoisomerase II; [3]) was 3.7 µM and the IC50 [1] was 1.5 µM.
Cc1cc(-c2c(F)cc3c4nn(Cc5ccccc5O)c(=O)c-4cn(C4CC4)c3c2F)cc(C)n1 [Example 33] was tested, and the EC50 (human topoisomerase II; [3]) was 3.8 µM and the IC50 [1] was 1.4 µM.
Cc1cc(-c2c(F)cc3c4nn(-c5ccccc5O)c(=O)c-4cn(C4CC4)c3c2F)cc(C)n1 [Example 5, 5-Cyclopropyl-6,8-difluoro-2,5-dihydro-2-(2-hydroxyphenyl)-7-(2,6-dimethyl-4-pyridinyl) -3H-pyrazolo[4,3-c]quinolin-3-one] showed an EC50 (human topoisomerase II; [3]) of 1.2 µM and an IC50 [1] of 0.15 µM.
In the case of Cc1cc(-c2c(F)cc3c4nn(CC(F)(F)F)c(=O)c-4cn(C4CC4)c3c2F)cc(C)n1 [Example 2], the EC50 (human topoisomerase II; [3]) is reported as 6.8 µM and the IC50 [1] is reported as 1.4 µM.
